Reference: ChEMBL document CHEMBL6092162, “Identification of novel and potent triazoles targeting CYP51 for antifungal: Design, synthesis, and biological study” (Eur J Med Chem, 2024)
Converted amounts (≈) assume the structure as drawn. The source made the active and inactive calls. No cut-off for these calls is given here.

What was measured:
Candida albicans [1] = experiment: Antifungal activity against Candida albicans SC5314 assessed as inhibition of fungal growth by CLSI M27-A3 guidelines based method; type: functional
Candida albicans [2] = experiment: Antifungal activity against Candida albicans GIM 2.194 assessed as inhibition of fungal growth by CLSI M27-A3 guidelines based method; type: functional
Candida tropicalis = experiment: Antifungal activity against Candida tropicalis GIM 2.183 assessed as inhibition of fungal growth by CLSI M27-A3 guidelines based method; type: functional
Candida parapsilosis = experiment: Antifungal activity against Candida parapsilosis GIM 2.190 assessed as inhibition of fungal growth by CLSI M27-A3 guidelines based method; type: functional; conditions: Lodderomyces parapsilosis
Nakaseomyces glabratus = experiment: Antifungal activity against Candida glabrata assessed as inhibition of fungal growth by CLSI M27-A3 guidelines based method; type: functional
Pichia kudriavzevii = experiment: Antifungal activity against Candida krusei GIM 2.1 assessed as inhibition of fungal growth by CLSI M27-A3 guidelines based method; type: functional
Cryptococcus neoformans = experiment: Antifungal activity against Cryptococcus neoformans CGMCC 2.3161 assessed as inhibition of fungal growth by CLSI M27-A3 guidelines based method; type: functional
Candida albicans [3] = experiment: Antifungal activity against fluconazole and iodiconazole resistant Candida albicans clinical isolate 17# assessed as inhibition of fungal growth by CLSI M27-A3 guidelines based method; type: functional
Candida albicans [4] = experiment: Antifungal activity against fluconazole-resistant Candida albicans CaR assessed as inhibition of fungal growth by CLSI M27-A3 guidelines based method; type: functional
Candida albicans [5] = experiment: Antifungal activity against fluconazole-resistant Candida albicans clinical isolate 901 assessed as inhibition of fungal growth by CLSI M27-A3 guidelines based method; type: functional
Candida albicans [6] = experiment: Antifungal activity against fluconazole-resistant Candida albicans clinical isolate 904 assessed as inhibition of fungal growth by CLSI M27-A3 guidelines based method; type: functional
Candida albicans [7] = experiment: Antifungal activity against fluconazole-resistant Candida albicans clinical isolate 632 assessed as inhibition of fungal growth by CLSI M27-A3 guidelines based method; type: functional
Candida albicans [8] = experiment: Antifungal activity against fluconazole-resistant Candida albicans clinical isolate 100 assessed as inhibition of fungal growth by CLSI M27-A3 guidelines based method; type: functional
Candida albicans [9] = experiment: Antifungal activity against fluconazole-resistant Candida albicans clinical isolate 103 assessed as inhibition of fungal growth by CLSI M27-A3 guidelines based method; type: functional
Candida albicans [10] = experiment: Antifungal activity against fluconazole-resistant Candida albicans clinical isolate 311 assessed as inhibition of fungal growth by CLSI M27-A3 guidelines based method; type: functional
Candida albicans [11] = experiment: Fungicidal activity against Candida albicans SC5314 incubated for 48 hrs by SDA plate based method; type: functional
Candida albicans [12] = experiment: Selectivity ratio of MFC for fungicidal activity against Candida albicans SC5314 to MIC80 for antifungal activity against Candida albicans SC5314; type: functional
Candida albicans [13] = experiment: Fungicidal activity against fluconazole and iodiconazole resistant Candida albicans clinical isolate 17# incubated for 48 hrs by SDA plate based method; type: functional
Candida albicans [14] = experiment: Selectivity ratio of MFC for fungicidal activity against fluconazole and iodiconazole resistant Candida albicans clinical isolate 17# to MIC80 for antifungal activity against fluconazole and iodiconazole resistant Candida albicans clinical isolate 17#; type: functional
Candida albicans [15] = experiment: Antibiofilm activity against fluconazole-resistant Candida albicans CPCC400616 assessed as inhibition of metabolic activity of biofilm measured after 6 hrs by XTT reduction assay; type: functional
Candida albicans [16] = experiment: Antibiofilm activity against fluconazole-resistant Candida albicans CPCC400616 assessed as inhibition of metabolic activity of biofilm measured after 24 hrs by XTT reduction assay; type: functional
Candida albicans [17] = experiment: Antibiofilm activity against fluconazole-resistant Candida albicans CPCC400616 assessed as inhibition of metabolic activity of biofilm measured after 48 hrs by XTT reduction assay; type: functional
[18] = Cytotoxicity against HEK293T cells assessed as inhibition of cell growth incubated for 72 hrs by MTT assay; type: toxicity, cell-based, HEK-293T; conditions: human
[19] = Cytotoxicity against human NCI-H460 cells assessed as inhibition of cell growth incubated for 72 hrs by MTT assay; type: toxicity, cell-based
[20] = Cytotoxicity against human OVCAR-3 cells assessed as inhibition of cell growth incubated for 72 hrs by MTT assay; type: toxicity, cell-based
[21] = Cytotoxicity against HUVEC cells assessed as inhibition of cell growth incubated for 72 hrs by MTT assay; type: toxicity, cell-based; conditions: human
Candida albicans [22] = experiment: Antibiofilm activity against Candida albicans CPCC400616 assessed as inhibition of morphological transformation by measuring disappearance of mycelium at 2 microg/ml incubated for 4 hrs by microscopic photograph analysis; type: functional, organism-based; conditions: dose 2.0 µg/ml
Candida albicans [23] = experiment: Effect on sterol composition in Candida albicans SC5314 assessed as ergosterol content at 1 microg/ml measured after 16 hrs by GC-MS analysis (reference value: 96.96 %); type: functional; conditions: dose 1 µg/ml
Candida albicans [24] = experiment: Effect on sterol composition in Candida albicans SC5314 assessed as 14alpha-demethyllanosterol content at 1 microg/ml measured after 16 hrs by GC-MS analysis (reference value: 1.98 %); type: functional; conditions: dose 1 µg/ml
Candida albicans [25] = experiment: Effect on sterol composition in Candida albicans SC5314 assessed as obtusifoliol content at 1 microg/ml measured after 16 hrs by GC-MS analysis relative to control; type: functional; conditions: dose 1 µg/ml
Candida albicans [26] = experiment: Effect on sterol composition in Candida albicans SC5314 assessed as lanosterol content at 1 microg/ml measured after 16 hrs by GC-MS analysis relative to control; type: functional; conditions: dose 1 µg/ml
Candida albicans [27] = experiment: Effect on sterol composition in Candida albicans SC5314 assessed as eburicol content at 1 microg/ml measured after 16 hrs by GC-MS analysis relative to control; type: functional; conditions: dose 1 µg/ml
Candida albicans [28] = experiment: Effect on sterol composition in Candida albicans SC5314 assessed as other sterols content at 1 microg/ml measured after 16 hrs by GC-MS analysis (reference value: 1.06 %); type: functional; conditions: dose 1 µg/ml

| Compound | MIC80 (Candida albicans [1]) [µg/mL] | MIC80 (Candida albicans [2]) [µg/mL] | MIC80 (Candida tropicalis) [µg/mL] | MIC80 (Candida parapsilosis) [µg/mL] | MIC80 (Nakaseomyces glabratus) [µg/mL] | MIC80 (Pichia kudriavzevii) [µg/mL] | MIC80 (Cryptococcus neoformans) [µg/mL] | MIC80 (Candida albicans [3]) [µg/mL] | MIC80 (Candida albicans [4]) [µg/mL] | MIC80 (Candida albicans [5]) [µg/mL] | MIC80 (Candida albicans [6]) [µg/mL] | MIC80 (Candida albicans [7]) [µg/mL] | MIC80 (Candida albicans [8]) [µg/mL] | MIC80 (Candida albicans [9]) [µg/mL] | MIC80 (Candida albicans [10]) [µg/mL] | other results |
| --- | --- | --- | --- | --- | --- | --- | --- | --- | --- | --- | --- | --- | --- | --- | --- | --- |
| CN(Cc1ccc(I)cc1)CC(O)(Cn1cncn1)c1ccc(F)cc1F (stereo unspecified) | 0.013 (≈ 0.0268 µM) | 0.025 (≈ 0.0516 µM) | 0.013 (≈ 0.0268 µM) | 0.025 (≈ 0.0516 µM) | 0.2 (≈ 0.413 µM) | 0.2 (≈ 0.413 µM) | 0.1 (≈ 0.206 µM) | 0.25 (≈ 0.516 µM) | 2 (≈ 4.13 µM) | > 64 | 8 (≈ 16.5 µM) | 16 (≈ 33 µM) | 2 (≈ 4.13 µM) | 32 (≈ 66.1 µM) | > 64 | MFC (Candida albicans [11]): 32 µg/mL (≈ 66.1 µM); Selectivity ratio (Candida albicans [12]): >256; MFC (Candida albicans [13]): 32 µg/mL (≈ 66.1 µM); Selectivity ratio (Candida albicans [14]): 128; MIC50 (Candida albicans [15]): 8 µg/mL (≈ 16.5 µM); MIC50 (Candida albicans [16]): 16 µg/mL (≈ 33 µM); MIC50 (Candida albicans [17]): > 32 µg/mL; IC50 at 72 h [18]: > 10 µM; IC50 at 72 h [19]: > 10 µM; IC50 at 72 h [20]: > 10 µM; IC50 at 72 h [21]: > 10 µM; Activity (Candida albicans [22]): Active |
| CN(Cc1ccc(N2CCN(Cc3cccc(Br)c3)CC2)cc1)CC(O)(Cn1cncn1)c1ccc(F)cc1F (stereo unspecified) | 0.013 (≈ 0.0213 µM) | 0.013 (≈ 0.0213 µM) | 0.013 (≈ 0.0213 µM) | 0.006 (≈ 0.00981 µM) | 0.2 (≈ 0.327 µM) | 0.1 (≈ 0.164 µM) | 0.1 (≈ 0.164 µM) | 0.063 (≈ 0.103 µM) | 0.063 (≈ 0.103 µM) | > 64 | 16 (≈ 26.2 µM) | 8 (≈ 13.1 µM) | 8 (≈ 13.1 µM) | 32 (≈ 52.3 µM) | 32 (≈ 52.3 µM) | – |
| CN(Cc1ccc(N2CCN(Cc3ccc(OC(F)(F)F)cc3)CC2)cc1)CC(O)(Cn1cncn1)c1ccc(F)cc1F (stereo unspecified) | 0.013 (≈ 0.0211 µM) | 0.013 (≈ 0.0211 µM) | 0.006 (≈ 0.00973 µM) | 0.025 (≈ 0.0405 µM) | 0.1 (≈ 0.162 µM) | 0.1 (≈ 0.162 µM) | 0.1 (≈ 0.162 µM) | 0.125 (≈ 0.203 µM) | 0.063 (≈ 0.102 µM) | > 64 | 32 (≈ 51.9 µM) | 32 (≈ 51.9 µM) | 8 (≈ 13 µM) | 32 (≈ 51.9 µM) | > 64 | – |
| CN(Cc1ccc(N2CCN(Cc3ccc(C(C)(C)C)cc3)CC2)cc1)CC(O)(Cn1cncn1)c1ccc(F)cc1F (stereo unspecified) | 0.013 (≈ 0.0221 µM) | 0.006 (≈ 0.0102 µM) | 0.013 (≈ 0.0221 µM) | 0.006 (≈ 0.0102 µM) | 0.1 (≈ 0.17 µM) | – | 0.1 (≈ 0.17 µM) | 0.125 (≈ 0.212 µM) | 0.063 (≈ 0.107 µM) | > 64 | 32 (≈ 54.4 µM) | 16 (≈ 27.2 µM) | 8 (≈ 13.6 µM) | 8 (≈ 13.6 µM) | 8 (≈ 13.6 µM) | – |
| OC(Cn1cncn1)(Cn1cncn1)c1ccc(F)cc1F [FLUCONAZOLE] | 0.25 (≈ 0.816 µM) | 0.5 (≈ 1.63 µM) | 0.25 (≈ 0.816 µM) | 1 (≈ 3.27 µM) | 8 (≈ 26.1 µM) | 8 (≈ 26.1 µM) | 4 (≈ 13.1 µM) | > 64 | > 64 | > 64 | > 64 | > 64 | > 64 | > 64 | > 64 | MFC (Candida albicans [11]): > 64 µg/mL; MFC (Candida albicans [13]): > 64 µg/mL; Activity (Candida albicans [23]): 4.57%; Activity (Candida albicans [24]): 3.03%; Activity (Candida albicans [25]): 14.37%; Activity (Candida albicans [26]): 9.3%; Activity (Candida albicans [27]): 60.09%; Activity (Candida albicans [28]): 8.64%; MIC50 (Candida albicans [15]): 16 µg/mL (≈ 52.2 µM); MIC50 (Candida albicans [16]): > 32 µg/mL; MIC50 (Candida albicans [17]): > 32 µg/mL; IC50 at 72 h [18]: > 40 µM; IC50 at 72 h [19]: > 40 µM; IC50 at 72 h [20]: > 40 µM; IC50 at 72 h [21]: > 40 µM; Activity (Candida albicans [22]): Not active; Oval Shaped Yeast Phase Fungi Observed |
| CN(Cc1ccc(N2CCN(Cc3ccccc3Br)CC2)cc1)CC(O)(Cn1cncn1)c1ccc(F)cc1F (stereo unspecified) | 0.013 (≈ 0.0213 µM) | 0.006 (≈ 0.00981 µM) | 0.013 (≈ 0.0213 µM) | 0.006 (≈ 0.00981 µM) | 0.1 (≈ 0.164 µM) | 0.1 (≈ 0.164 µM) | – | 0.063 (≈ 0.103 µM) | 0.063 (≈ 0.103 µM) | > 64 | 16 (≈ 26.2 µM) | 8 (≈ 13.1 µM) | 4 (≈ 6.54 µM) | 16 (≈ 26.2 µM) | 32 (≈ 52.3 µM) | – |
| CN(Cc1ccc(N2CCN(Cc3ccc(Cl)cc3Br)CC2)cc1)CC(O)(Cn1cncn1)c1ccc(F)cc1F (stereo unspecified) | 0.006 (≈ 0.00929 µM) | 0.006 (≈ 0.00929 µM) | 0.006 (≈ 0.00929 µM) | 0.006 (≈ 0.00929 µM) | – | – | – | 1 (≈ 1.55 µM) | 0.125 (≈ 0.194 µM) | > 64 | 32 (≈ 49.5 µM) | 32 (≈ 49.5 µM) | 8 (≈ 12.4 µM) | > 64 | > 64 | – |
| CN(Cc1ccc(N2CCN(Cc3ccc(C(F)(F)F)cc3)CC2)cc1)CC(O)(Cn1cncn1)c1ccc(F)cc1F (stereo unspecified) | 0.013 (≈ 0.0216 µM) | 0.013 (≈ 0.0216 µM) | 0.013 (≈ 0.0216 µM) | 0.013 (≈ 0.0216 µM) | 0.1 (≈ 0.166 µM) | – | 0.1 (≈ 0.166 µM) | 0.125 (≈ 0.208 µM) | 0.063 (≈ 0.105 µM) | > 64 | 32 (≈ 53.3 µM) | 16 (≈ 26.6 µM) | 8 (≈ 13.3 µM) | 32 (≈ 53.3 µM) | 32 (≈ 53.3 µM) | – |
| CN(Cc1ccc(N2CCN(Cc3cc(F)ccc3Br)CC2)cc1)CC(O)(Cn1cncn1)c1ccc(F)cc1F (stereo unspecified) | 0.013 (≈ 0.0207 µM) | 0.025 (≈ 0.0397 µM) | 0.006 (≈ 0.00953 µM) | 0.006 (≈ 0.00953 µM) | 0.1 (≈ 0.159 µM) | 0.1 (≈ 0.159 µM) | – | 0.25 (≈ 0.397 µM) | 0.063 (≈ 0.1 µM) | > 64 | 8 (≈ 12.7 µM) | 16 (≈ 25.4 µM) | 2 (≈ 3.18 µM) | 8 (≈ 12.7 µM) | 32 (≈ 50.8 µM) | – |
